Test results as given in patent publication US20170008888A1 (KYORIN PHARMACEUTICAL CO., LTD., priority 2014, published 2017).
Like-named read-outs stand apart in the source and are kept apart here.

Key:
human CD4+ T cells = test: Cytokines produced by human CD4+ T cells stimulated with PMA/ionomycin; format: cell-based; settings: 10 μM compound, PMA/ionomycin 20 h
Excerpt: Freshly isolated human peripheral blood mononuclear cells (PBMCs) were purchased from Astarte Biologics (Redmond, Wash.). CD4+ T cells were isolated from the PBMCs using the EasySep Negative Selection Human CD4+ T Cell Enrichment Kit (Stemcell Technologies, Vancouver, Canada) according to manufacturer's instructions briefly as follows: Unwanted cells were specifically labeled with a cocktail of bispecific tetrameric antibody complexes (TAC) against dextran and cell surface antigens (CD8, CD14, CD16, CD19, CD20, CD36, CD56, CD66b, CD123, TCRγ/δ, glycophorin A). Labeled cells were then targeted for removal by incubation with dextran-coated magnetic particles, leaving the desired CD4+ T cells.
Human CD4+ T cells, isolated as shown in protocol A, were seeded at 2e6 cells/ml in RPMI 1640 containing 10% (v/v) charcoal-dextran treated, heat inactivated FBS (Omega Scientific, Tarzana, Calif.), 0.05 mM 2-Mercaptoethanol (Sigma-Aldrich, St. Louis, Mo.), and 1×Pen/Strep Amphotericin B (Lonza, Allendale, N.J.). Cells were pre-treated with test compounds (10 μM) for 1 h at 37° C. in a humidified atmosphere at 5% CO2. Cells were then stimulated with 50 ng/ml phorbol 12-myristate 13-acetate (PMA)(Sigma-Aldrich, St. Louis, Mo.)+1 μg/ml ionomycin (Life Technologies, Grand Island, N.Y.) for 20 h at 37° C. in a humidified atmosphere at 5% CO2. Supernatant was collected and analyzed using Bio-Plex Pro Human Th17 Cytokine 15-Plex Panel (Bio-Rad Laboratories, Hercules, Calif.) as per manufacturer's protocols. Magnetic beads were read on the Bio-Plex MAGPIX multiplex reader instrument using the accompanying xPONENT 4.2 acquisition software (Bio-Rad Laboratories, Hercules, Calif.). Data were analyzed via the Bio-Plex Manager software v6.1 (Bio-Rad Laboratories).
IL-1β, IL-2, IL-7, and IL-12 (p70) were below the limit of detection under conditions used. The concentrations of the observed analytes of the DMSO control, from top to bottom as listed, are as follows: 31, 585, 24178, 22, 48, 91, 728, 94, 156, 705, 15, 1045, 5501 pg/ml.

BRD3 = target: T1, BRD3 (Homo sapiens, UniProt Q15059); test: Bromodomain binding assay: BRD3
T1 construct: read out by qPCR of the phage DNA
T1 sequence (Q15059 whole entry): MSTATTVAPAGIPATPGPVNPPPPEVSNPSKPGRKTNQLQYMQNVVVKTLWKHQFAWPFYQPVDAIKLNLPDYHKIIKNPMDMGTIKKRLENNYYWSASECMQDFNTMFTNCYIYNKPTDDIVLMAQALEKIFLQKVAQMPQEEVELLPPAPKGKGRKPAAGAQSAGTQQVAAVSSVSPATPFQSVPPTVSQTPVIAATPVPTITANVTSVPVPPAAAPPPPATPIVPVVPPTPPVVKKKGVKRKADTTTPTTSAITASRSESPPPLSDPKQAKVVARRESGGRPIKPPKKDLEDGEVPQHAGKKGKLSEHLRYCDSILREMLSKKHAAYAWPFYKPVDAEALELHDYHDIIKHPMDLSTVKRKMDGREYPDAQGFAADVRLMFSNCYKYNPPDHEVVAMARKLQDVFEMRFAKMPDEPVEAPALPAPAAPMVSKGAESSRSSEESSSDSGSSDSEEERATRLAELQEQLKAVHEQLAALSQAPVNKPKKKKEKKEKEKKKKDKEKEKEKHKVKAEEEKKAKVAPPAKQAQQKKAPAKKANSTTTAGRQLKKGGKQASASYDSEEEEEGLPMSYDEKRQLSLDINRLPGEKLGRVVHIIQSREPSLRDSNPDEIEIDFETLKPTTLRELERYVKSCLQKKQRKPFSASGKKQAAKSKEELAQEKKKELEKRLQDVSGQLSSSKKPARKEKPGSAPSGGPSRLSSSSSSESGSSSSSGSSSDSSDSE
Experimental: (§1) T7 phage strains displaying bromodomains were grown in parallel in 24-well blocks in an E. coli host derived from the BL21 strain. E. coli were grown to log-phase and infected with T7 phage from a frozen stock (multiplicity of infection=0.4) and incubated with shaking at 32° C. until lysis (90-150 minutes). The lysates were centrifuged (5,000×g) and filtered (0.2 μm) to remove cell debris. […] The liganded beads were blocked with excess biotin and washed with blocking buffer (SeaBlock (Pierce), 1% BSA, 0.05 Tween 20, 1 mM DTT) to remove unbound ligand and to reduce non-specific phage binding. […] Test compounds (T62 and 46) were prepared as 1000× stocks in 100% DMSO and subsequently diluted 1:10 in monoethylene glycol (MEG) to create stocks at 100× the screening concentration (resulting stock solution is 10% DMSO/90% MEG). The compounds were then diluted directly into the assays such that the final concentration of DMSO and MEG were 0.1% and 0.9%, respectively. All reactions were performed in polystyrene 96-well plates in a final volume of 0.135 ml. […] The bromodomain concentration in the eluates was measured by qPCR. Compounds were assayed for binding activity against a panel of 40 bromodomain-containing proteins.

PCAF = target: T2, PCAF (Homo sapiens, UniProt Q92831); test: Bromodomain binding assay: PCAF
T2 construct: made in house; host or cells: E. coli host derived from the BL21 strain (T7 phage lysate)
T2 sequence (Q92831 723-827 limits assumed): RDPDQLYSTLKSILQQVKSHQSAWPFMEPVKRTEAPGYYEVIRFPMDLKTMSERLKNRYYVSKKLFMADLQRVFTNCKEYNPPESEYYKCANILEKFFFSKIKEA
Experimental: as §1

[1] = test system: immortalized normal human bronchial epithelial BEAS-2B cells; test: IL-17A- or IL-17F-mediated cytokine response by BEAS-2B cells; format: cell-based; settings: 48 h
Experimental: The virally immortalized, normal human bronchial epithelial cell line BEAS-2B was purchased from ATCC (Manassas, Va.). Primary bronchial epithelial cells isolated from a patient diagnosed with asthma were obtained from Lonza (Allendale, N.J.). Both cells were maintained in complete Bronchial Epithelial Cell Growth Medium (BEGM) (Lonza). Cells were seeded at 1e5 cells/ml and incubated at 37° C. in a humidified atmosphere at 5% CO2 overnight to adhere. Cells were pre-treated with test compounds (10 μM down by ⅕ in a 3- or 4-point serial dilution series) for 1 h at 37° C. in a humidified atmosphere at 5% CO2. DMSO at a final concentration of 0.1% served as the non-inhibited control. Budesonide (Selleck Chemicals, Houston, Tex.), a clinically approved glucocorticoid steroid for the treatment of asthma, was tested as a positive control at 0.25 μM. Cells were stimulated with 50 ng/ml of either human recombinant IL-17A or IL-17F (eBioscience, San Diego, Calif.), for 48 h. Supernatant was then collected and analyzed for cytokine concentrations using the Bio-Plex Pro Human Cytokine 17-Plex Panel (Bio-Rad Laboratories, Hercules, Calif.) according to the manufacturer's instructions. Magnetic beads were measured on the Bio-Plex MAGPIX multiplex reader instrument using the accompanying xPONENT 4.2 acquisition software (Bio-Rad Laboratories). Data were analyzed via the Bio-Plex Manager software v6.1 (Bio-Rad Laboratories). For the primary asthmatic bronchial epithelial cells, five (+IL-17F) to thirteen (+IL-17A) cytokines were in range of detection under the conditions used. […] Select cytokines were analyzed for comparison using the BEAS-2B cell line.

Kd (BRD3): 33 nM
Kd (PCAF): > 20 µM
Compound: CCOc1cc(C(=O)N2CCC(N3CCCC3)CC2)ccc1Nc1cc2c(cn1)N(C)C(=O)c1ccccc1N2C [Compound 46, 3-(2-Ethoxy-4-(4-(pyrrolidin-1-yl)piperidine-1-carbonyl)phenylamino)-5,11-dimethyl-5H-benzo[e]pyrido[3,4-b][1,4]diazepin-10(11H)-one]
inhibition at 10 µM (human CD4+ T cells; read-out: Percent inhibition of G-CSF (relative to DMSO control)): 26.4%
inhibition at 10 µM (human CD4+ T cells; read-out: Percent inhibition of GM-CSF (relative to DMSO control)): 96.7%
inhibition at 10 µM (human CD4+ T cells; read-out: Percent inhibition of IFNγ (relative to DMSO control)): 18.3%
inhibition at 10 µM (human CD4+ T cells; read-out: Percent inhibition of IL-4 (relative to DMSO control)): 11.7%
inhibition at 10 µM (human CD4+ T cells; read-out: Percent inhibition of IL-5 (relative to DMSO control)): 49.1%
inhibition at 10 µM (human CD4+ T cells; read-out: Percent inhibition of IL-6 (relative to DMSO control)): 89.3%
inhibition at 10 µM (human CD4+ T cells; read-out: Percent inhibition of IL-8 (relative to DMSO control)): -109%
inhibition at 10 µM (human CD4+ T cells; read-out: Percent inhibition of IL-10 (relative to DMSO control)): 97.3%
inhibition at 10 µM (human CD4+ T cells; read-out: Percent inhibition of IL-13 (relative to DMSO control)): 32.1%
inhibition at 10 µM (human CD4+ T cells; read-out: Percent inhibition of IL-17A (relative to DMSO control)): 52.2%
inhibition at 10 µM (human CD4+ T cells; read-out: Percent inhibition of MCP-1 (relative to DMSO control)): 67.6%
inhibition at 10 µM (human CD4+ T cells; read-out: Percent inhibition of MIP-1β (relative to DMSO control)): 63.9%
inhibition at 10 µM (human CD4+ T cells; read-out: Percent inhibition of TNFα (relative to DMSO control)): 64%
EC50 ([1]; +50 ng/ml IL-17A, read-out: EC50 values (μM), IL-6): 0.51 µM
EC50 ([1]; +50 ng/ml IL-17A, read-out: EC50 values (μM), IL-8): 0.4 µM
EC50 ([1]; +50 ng/ml IL-17F, read-out: EC50 values (μM), IL-6): 0.38 µM
EC50 ([1]; +50 ng/ml IL-17F, read-out: EC50 values (μM), IL-8): 0.32 µM
